The values that follow come from patent publication US9512172B2, “Ethanol dependence of alpha1 antitrypsin C-terminal Lys truncation by basic carboxypeptidases” (Baxalta Incorporated, priority 2006, dated 2016).

What is called pKi is the Ki on a negative log10 scale, so that one unit is a factor of ten.

pKi: −log10 of the molar value.

For assay [1], the target named is T1, CPU (Homo sapiens, UniProt Q96IY4).
T1 sequence (Q96IY4 115-423): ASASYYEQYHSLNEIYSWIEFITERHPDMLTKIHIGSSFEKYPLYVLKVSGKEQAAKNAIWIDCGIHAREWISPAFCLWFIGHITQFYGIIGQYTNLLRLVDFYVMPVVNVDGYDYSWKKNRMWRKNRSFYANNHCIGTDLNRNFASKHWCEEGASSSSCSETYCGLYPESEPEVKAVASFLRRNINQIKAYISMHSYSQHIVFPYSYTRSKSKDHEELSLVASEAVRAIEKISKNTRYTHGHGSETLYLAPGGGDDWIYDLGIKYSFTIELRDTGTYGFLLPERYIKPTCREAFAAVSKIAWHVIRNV
As to conditions: cited from earlier work.

Assay [2] concerns the target T2, CPN (Homo sapiens, UniProt P15169).
T2 sequence (P15169 21-458): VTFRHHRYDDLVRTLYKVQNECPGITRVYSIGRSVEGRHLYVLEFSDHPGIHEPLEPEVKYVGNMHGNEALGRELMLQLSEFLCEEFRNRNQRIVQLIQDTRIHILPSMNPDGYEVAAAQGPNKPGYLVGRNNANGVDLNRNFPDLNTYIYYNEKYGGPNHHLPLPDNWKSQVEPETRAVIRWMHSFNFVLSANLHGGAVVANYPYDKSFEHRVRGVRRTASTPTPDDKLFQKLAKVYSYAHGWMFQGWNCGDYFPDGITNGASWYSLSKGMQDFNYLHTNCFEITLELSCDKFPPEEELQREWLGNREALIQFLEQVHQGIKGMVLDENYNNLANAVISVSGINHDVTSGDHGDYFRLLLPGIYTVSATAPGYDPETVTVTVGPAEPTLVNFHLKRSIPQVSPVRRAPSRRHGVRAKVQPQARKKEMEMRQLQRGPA
T2 sequence (P22792 22-545 partner): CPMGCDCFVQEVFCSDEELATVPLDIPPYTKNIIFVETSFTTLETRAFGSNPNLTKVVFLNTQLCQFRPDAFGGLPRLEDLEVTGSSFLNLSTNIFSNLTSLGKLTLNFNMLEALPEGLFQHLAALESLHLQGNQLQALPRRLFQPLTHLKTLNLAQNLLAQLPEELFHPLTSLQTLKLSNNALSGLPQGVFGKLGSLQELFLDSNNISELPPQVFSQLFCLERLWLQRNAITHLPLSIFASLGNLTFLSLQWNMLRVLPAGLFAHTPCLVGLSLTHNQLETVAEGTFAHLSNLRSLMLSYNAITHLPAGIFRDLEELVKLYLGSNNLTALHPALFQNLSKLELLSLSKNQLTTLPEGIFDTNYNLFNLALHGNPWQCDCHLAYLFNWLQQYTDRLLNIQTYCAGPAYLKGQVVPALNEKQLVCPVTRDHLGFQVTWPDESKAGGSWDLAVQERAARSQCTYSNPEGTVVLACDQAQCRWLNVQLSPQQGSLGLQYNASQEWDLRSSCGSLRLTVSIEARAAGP
To be noted: cited from earlier work.

In assay [3] the target is T3, CPN present in the paste (Homo sapiens, UniProt P15169).
T3 construct: Cohn IV-1 precipitate is usually derived after ethanol fractionation of plasma; from tissue; host or cells: Cohn IV-1 paste (ethanol precipitate of plasma)
T3 sequence (P15169 21-458): T2 sequence (P15169 21-458)
T3 sequence (P22792 22-545 partner): T2 sequence (P22792 22-545 partner)
In words: Effect of CP inhibitors on C-terminal lysine truncation in dissolved, ethanol-treated IV-1 paste (IEF). The class given is biochemical. The procedure:
Cohn IV-1 paste was dissolved in 2.6 volumes of 10 mM Tris-buffer at pH 8.8 and incubated for 30 min at 22° C. The suspension was made 40% in ethanol (by addition of 2.4 volumes of ethanol), stirred for a further 60 min, diluted with the same Tris-buffer to 10% ethanol and extracted for a further 6 h.
The following inhibitors were added in parallel during extraction and dilution with Tris-buffer: 100 mM 6-aminocaproic acid, 10 μM or 1 nM 2-mercaptomethyl-3-guanidinoethylthiopropanoic acid (a more specific inhibitor of CPN). The samples were characterized by high resolution isoelectric focusing.
For high resolution isoelectric focusing a new hybrid IEF method using IPG-Immobiline gels (GE Healthcare Bio-Sciences, pI 4.2-4.9, Uppsala, Sweden) was developed which is similar to that described by Weidinger^54. Samples were diluted with water to 0.5 mg A1PI/mL and 5 mM DTE was added. Samples (20 μl) were applied close to the cathode on the pre-focused gel and focused for 150 min (5000 Vh). For paste extracts focusing time was extended to 420 min. Gels were stained with Coomassie Brilliant Blue G-250 (BioRad, Hercules, USA) as described by Neuhoff^55. Blotting and immunostaining were done with a rabbit anti-A1PI antibody (Rabbit Anti-Human Alpha-1-Antitrypsin, #A0012, DakoCytomation, Glostrup, Denmark).

The target of assay [4] is T2, CPN. As to conditions: at 10% ethanol.
Description: The activity of the basic carboxypeptidases was measured with a HPLC-assisted assay as described^52. This assay is based on the cleavage of the synthetic substrate hippuryl-L-arginine. Released hippuric acid was determined with reverse phase high performance liquid chromatography (RP-HPLC). Briefly, to 10 μl of sample, 40 μl of 30 mM hippuryl-L-arginine (Bachem Feinchemikalien, Buchs, Switzerland) in 50 mM HEPES, pH 8.0, was added and incubated for 30 minutes at 37° C. in a water bath. Hippuryl-L-arginine cleavage was stopped by adding 50 μl of 1 M HCl. 10 μl of o-methyl hippuric acid (synthesized from methylbenzoyl chloride) serving as an internal standard was added afterwards. The hippuric acid (Bz-Gly, Fluka, Buchs, Switzerland) and o-methyl hippuric acid were extracted with ethyl acetate (300 μl). This layer was evaporated to dryness, redissolved in the mobile phase (10 mM KH2PO4, 10% acetonitrile, pH 3.5) and injected unto the column (C-18 Chromolith, performance 100-4.6 mm column (Merck, Darmstadt, Germany). The separation was done in isocratic mode and monitored at 228 nm. One unit of carboxypeptidase activity is defined as the amount of enzyme required to release 1 μmol of hippuric acid per min at 37° C. under the assay conditions described.

On to `N=C(N)NCCSCC(CS)C(=O)O` (racemic) [DL-2-mercaptomethyl-3-guanidinoethylthio-propanoic acid], for which the negative-log Ki (pKi) in assay [1] was 6.70; in assay [2], 8.06. Besides, the “Inhibition of Lys truncation induced by the procedure 40=>10% EtOH” value in assay [3] (dissolved IV-1 paste, pH 8.8, 6 h) is given as “dose-dependently”. In addition, the “Inhibition of lysine removal from A1PI” value in assay [3] (inhibitor at 10 μmol/l) is “completely inhibited”.
As to `CCO` [ethanol], the “Rate of substrate (Bz-Gly-Arg) cleavage by CPN” value in assay [4] was “almost doubled”.
